{"source": "patent EP3060679B1", "about": "“METHOD AND KIT FOR DETERMINING WHETHER A SUBJECT SHOWS AN IMMUNE RESPONSE” (BioNTech Diagnostics GmbH, priority 2013, dated 2015)", "key": {"patient's PBMCs": {"test_system": "patient's PBMCs", "conditions": "6 weeks after vaccination vs before treatment", "method": "The above described method is used for monitoring an immune response in 2 melanoma patients that were treated by an immunotherapy based on a peptide vaccine consisting of the HLA-B^∗0702-restricted T cell epitope […] (aa97-111) (SEQ ID NO: 40) of the tumor-associated antigen NY-ESO 1. In order to evaluate whether or not patients would benefit from a corresponding peptide vaccination therapy, HLA genotyping is done to test for HLA-B^∗0702 and tumor biopsies are examined for high NY-ESO 1 expression.\n(§1) Before the vaccination therapy is started, the method described herein above is applied to establish HLA- and TCR-specific gene expression profiles of the patient's PBMCs. Furthermore the tumor size/mass is determined by CT scan. During therapy, the patients received 1 mg of the HLA-B^∗0702-restricted peptide […] every 2 weeks for 6 doses.\n(§2) In addition HLA-expression profiles are established from tumor biopsies that are taken from the patients 12 weeks after the last vaccination."}, "tumor": {"test_system": "tumor", "method": "as §1, §2"}, "HLA-B∗0702": {"test_system": "HLA-B∗0702", "description": "as §2\nFor further investigation new biopsies of the tumors of both patients are taken for analysis of tumor antigen expression and the establishment of a HLA expression profile using the method of the present invention."}}, "note": "Read-outs that look alike come from different tables or passages of the source."}
{"sequence": "ATPMEAELARRSLAQ", "values": [{"measurement": "increased expression of the TCR-β sequence V4.1 D2 J2.1 C2", "setting": "patient's PBMCs; patient 1, PBMCs", "result": 9.6, "unit": "fold"}, {"measurement": "increased expression of the TCR-α sequence V1.1 J23 C", "setting": "patient's PBMCs; patient 1, PBMCs, 1 mg peptide every 2 weeks for 6 doses", "result": 10.3, "unit": "fold"}, {"measurement": "increased expression of the TCR-α sequence V1.1 J23 C", "setting": "patient's PBMCs; patient 2, PBMCs", "result": 9.3, "unit": "fold"}, {"measurement": "increased expression of the TCR-β sequence V4.1 D2 J2.1 C2", "setting": "patient's PBMCs; patient 2, PBMCs", "result": 10.6, "unit": "fold"}, {"measurement": "tumor mass in the CT scan", "setting": "tumor; both patients, along with the T cell response seen 6 weeks after vaccination", "result": "loss of the tumor mass"}, {"measurement": "tumor in CT scan", "setting": "tumor; patient 1, 12 weeks after vaccination", "result": "continuous tumor regression"}, {"measurement": "tumor in CT scan", "setting": "tumor; patient 2, 12 weeks after vaccination", "result": "growing again"}, {"measurement": "HLA expression profile of tumor cells", "setting": "HLA-B∗0702; patient 1, tumor biopsy 12 weeks after the last vaccination", "result": "normal HLA expression profile"}, {"measurement": "expression of HLA-B∗0702 in tumor cells", "setting": "HLA-B∗0702; patient 2, tumor biopsy 12 weeks after the last vaccination", "result": "completely lost"}, {"measurement": "expression of isotypes of HLA class I and II", "setting": "HLA-B∗0702; patients' PBMCs, all time points", "result": "expressed at normal levels"}]}
